Results reported in US10597390B2, “Indoles for use in influenza virus infection” (Janssen Sciences Ireland UC, priority 2014, dated 2020).

Tests used:
in vitro = details: dog, TOX MDCK CC50
[1] = system: influenza virus A/Taiwan/1/86 (H1N1); assay: organism not typed; type: cell-based; details: MDCK, 72 h, CPE in MDCK cells, three days post-virus exposure, ATPlite

Row | SMILES | CC50 at 3 days (in vitro) [nM] | melting point [°C] | IC50 [1] [nM]
1 | Cc1c[nH]c(C(=O)N[C@@H]2CCC[C@H](Nc3nc(-c4c[nH]c5c(F)cc(Cl)cc45)ncc3F)C2)n1 [Compound 71] | 3400 | 276.8 | 2
2 | CCn1ccnc1C(=O)N[C@@H]1CCC[C@H](Nc2nc(-c3c[nH]c4c(F)cc(Cl)cc34)ncc2F)C1 [Compound 72] | 2800 | 156.4 | 3
3 | Cc1cn(C)nc1C(=O)N[C@@H]1CCC[C@H](Nc2nc(-c3c[nH]c4c(F)cc(Cl)cc34)ncc2F)C1 [Compound 73] | > 25000 | 248.4 | 9
4 | Cn1nnc(C(=O)N[C@@H]2CCC[C@H](Nc3nc(-c4c[nH]c5c(F)cc(Cl)cc45)ncc3F)C2)n1 [Compound 74] | > 25000 | 259.7 | 19
5 | Cn1ncnc1C(=O)N[C@@H]1CCC[C@H](Nc2nc(-c3c[nH]c4c(F)cc(Cl)cc34)ncc2F)C1 [Compound 75] | > 25000 | > 300 | 12
6 | Nc1nc(C(=O)N[C@@H]2CCC[C@H](Nc3nc(-c4c[nH]c5c(F)cc(Cl)cc45)ncc3F)C2)cs1 [Compound 76] | 2500 | 184.8 | 0.6
7 | Nc1n[nH]cc1C(=O)N[C@@H]1CCC[C@H](Nc2nc(-c3c[nH]c4c(F)cc(Cl)cc34)ncc2F)C1 [Compound 77] | 9900 | 133 | 3
8 | Cn1ncc(N)c1C(=O)N[C@@H]1CCC[C@H](Nc2nc(-c3c[nH]c4c(F)cc(Cl)cc34)ncc2F)C1 [Compound 79] | > 25000 | 166.4 | 38
9 | Cn1nc(C(=O)N[C@@H]2CCC[C@H](Nc3nc(-c4c[nH]c5c(F)cc(Cl)cc45)ncc3F)C2)cc1N [Compound 80] | 3900 | 174.8 | 4
10 | O=C(N[C@@H]1CCC[C@H](Nc2nc(-c3c[nH]c4c(F)cc(Cl)cc34)ncc2F)C1)c1nnn[nH]1 [Compound 81] | > 25000 | 275.1 | 39
11 | Cn1ccnc1C(=O)N[C@H]1CCC[C@@H](Nc2nc(-c3c[nH]c4c(F)cc(F)cc34)ncc2F)C1 [Compound 83] | 9600 | 166.6 | 2
12 | O=C(N[C@H]1CCC[C@@H](Nc2nc(-c3c[nH]c4c(F)cc(F)cc34)ncc2F)C1)c1cncs1 [Compound 84] | > 25000 | 295.2 | 3
13 | COc1cccc(C(=O)N[C@@H]2CCC[C@H](Nc3nc(-c4c[nH]c5c(F)cc(F)cc45)ncc3F)C2)n1 [Compound 98] | 14700 | 240 | 43
14 | O=C(N[C@@H]1CCC[C@H](Nc2nc(-c3c[nH]c4c(F)cc(F)cc34)ncc2F)C1)c1cc(Cl)ccn1 [Compound 99] | 10200 | 86 | 12
15 | O=C(N[C@@H]1CCC[C@H](Nc2nc(-c3c[nH]c4c(F)cc(F)cc34)ncc2F)C1)c1ccc2ncccc2n1 [Compound 100] | 12400 | 84.6 | 54
16 | Cc1cccnc1C(=O)N[C@@H]1CCC[C@H](Nc2nc(-c3c[nH]c4c(F)cc(F)cc34)ncc2F)C1 [Compound 101] | > 20700 | 236 | 10
17 | O=C(N[C@@H]1CCC[C@H](Nc2nc(-c3c[nH]c4c(F)cc(F)cc34)ncc2F)C1)c1ncccc1O [Compound 102] | 10100 | 176 | 10
18 | Cc1cnc(C(=O)N[C@@H]2CCC[C@H](Nc3nc(-c4c[nH]c5c(F)cc(F)cc45)ncc3F)C2)cn1 [Compound 103] | 6600 | 215 | 49
19 | O=C(N[C@@H]1CCC[C@H](Nc2nc(-c3c[nH]c4c(F)cc(F)cc34)ncc2F)C1)c1cccc(O)n1 [Compound 104] | > 25000 | 226.6 | 2
20 | COc1ccnc(C(=O)N[C@@H]2CCC[C@H](Nc3nc(-c4c[nH]c5c(F)cc(F)cc45)ncc3F)C2)c1 [Compound 105] | 5600 | 233.8 | 2
21 | Nc1cccc(C(=O)N[C@@H]2CCC[C@H](Nc3nc(-c4c[nH]c5c(F)cc(F)cc45)ncc3F)C2)n1 [Compound 106] | 10300 | 190 | 5
22 | O=C(N[C@@H]1CCC[C@H](Nc2nc(-c3c[nH]c4c(F)cc(F)cc34)ncc2F)C1)c1cnccn1 [Compound 107] | > 25000 | 269 | 45
23 | O=C(N[C@@H]1CCC[C@H](Nc2nc(-c3c[nH]c4c(F)cc(F)cc34)ncc2F)C1)c1ncccn1 [Compound 108] | > 24000 | > 300 | 6

Row | SMILES | CC50 at 3 days (in vitro) [nM] | melting point [°C] | IC50 [1] [nM]
24 | O=C(N[C@@H]1CCC[C@H](Nc2nc(-c3c[nH]c4c(F)cc(F)cc34)ncc2F)C1)c1nccs1 [Compound 109] | 6100 | 277 | 2
25 | Cc1ccnc(C(=O)N[C@@H]2CCC[C@H](Nc3nc(-c4c[nH]c5c(F)cc(F)cc45)ncc3F)C2)c1 [Compound 110] | 9600 | 255 | 3
26 | O=C(N[C@@H]1CCC[C@H](Nc2nc(-c3c[nH]c4c(F)cc(F)cc34)ncc2F)C1)c1c[nH]nn1 [Compound 111] | 9000 | 265 | 0.6
27 | Cc1cc(C(=O)N[C@@H]2CCC[C@H](Nc3nc(-c4c[nH]c5c(F)cc(F)cc45)ncc3F)C2)n[nH]1 [Compound 112] | 18000 | 283 | 3
28 | Cc1ncn(C)c1C(=O)N[C@@H]1CCC[C@H](Nc2nc(-c3c[nH]c4c(F)cc(F)cc34)ncc2F)C1 [Compound 113] | > 25000 | > 300 | 39
29 | O=C(N[C@@H]1CCC[C@H](Nc2nc(-c3c[nH]c4c(F)cc(F)cc34)ncc2F)C1)c1ncn[nH]1 [Compound 114] | > 25000 | 289.8 | 430
30 | CCn1nccc1C(=O)N[C@@H]1CCC[C@H](Nc2nc(-c3c[nH]c4c(F)cc(F)cc34)ncc2F)C1 [Compound 115] | > 25000 | 266.8 | 380
31 | Cc1cc(C(=O)N[C@@H]2CCC[C@H](Nc3nc(-c4c[nH]c5c(F)cc(F)cc45)ncc3F)C2)n(C)n1 [Compound 116] | 5800 | 279 | 12
32 | Cc1c(C(=O)N[C@@H]2CCC[C@H](Nc3nc(-c4c[nH]c5c(F)cc(F)cc45)ncc3F)C2)nnn1C [Compound 117] | 8700 | 202 | 11
33 | Cc1nc(C(=O)N[C@@H]2CCC[C@H](Nc3nc(-c4c[nH]c5c(F)cc(F)cc45)ncc3F)C2)no1 [Compound 118] | > 25000 | 233 | 43
34 | Cn1nncc1C(=O)N[C@@H]1CCC[C@H](Nc2nc(-c3c[nH]c4c(F)cc(F)cc34)ncc2F)C1 [Compound 119] | > 50000 | 285 | 5
35 | Cn1cc(C(=O)N[C@@H]2CCC[C@H](Nc3nc(-c4c[nH]c5c(F)cc(F)cc45)ncc3F)C2)cn1 [Compound 120] | > 25000 | > 300 | 3
36 | CN(C)c1ccnc(C(=O)N[C@@H]2CCC[C@H](Nc3nc(-c4c[nH]c5c(F)cc(F)cc45)ncc3F)C2)c1 [Compound 121] | 15700 | 282.8 | 6
37 | Cn1nccc1C(=O)N[C@@H]1CCC[C@H](Nc2nc(-c3c[nH]c4c(F)cc(F)cc34)ncc2F)C1 [Compound 122] | > 25000 | > 300 | 2
38 | Nc1nccc(C(=O)N[C@@H]2CCC[C@H](Nc3nc(-c4c[nH]c5c(F)cc(F)cc45)ncc3F)C2)n1 [Compound 123] | > 25000 | 235 | 11
39 | Nc1cc(C(=O)N[C@@H]2CCC[C@H](Nc3nc(-c4c[nH]c5c(F)cc(F)cc45)ncc3F)C2)ncn1 [Compound 124] | 11400 | 228 | 7
40 | O=C(N[C@@H]1CCC[C@H](Nc2nc(-c3c[nH]c4c(F)cc(F)cc34)ncc2F)C1)c1cc[nH]n1 [Compound 126] | 10000 | > 300 | 2
41 | O=C(N[C@@H]1CCC[C@H](Nc2nc(-c3c[nH]c4c(F)cc(F)cc34)ncc2F)C1)c1ncc[nH]1 [Compound 127] | > 100000 | > 300 | 1
42 | Cn1cc(Br)nc1C(=O)N[C@@H]1CCC[C@H](Nc2nc(-c3c[nH]c4c(F)cc(F)cc34)ncc2F)C1 [Compound 128] | 5900 | 176 | 10
43 | Cn1cc(C(=O)N[C@@H]2CCC[C@H](Nc3nc(-c4c[nH]c5c(F)cc(F)cc45)ncc3F)C2)nn1 [Compound 130] | 3200 | > 300 | 32
44 | Nc1cc(C(=O)N[C@@H]2CCC[C@H](Nc3nc(-c4c[nH]c5c(F)cc(F)cc45)ncc3F)C2)n[nH]1 [Compound 131] | 19400 | 245.7 | 4
45 | Cc1ocnc1C(=O)N[C@@H]1CCC[C@H](Nc2nc(-c3c[nH]c4c(F)cc(F)cc34)ncc2F)C1 [Compound 132] | 11400 | 266.7 | 2
46 | Cn1cnc(C(=O)N[C@@H]2CCC[C@H](Nc3nc(-c4c[nH]c5c(F)cc(F)cc45)ncc3F)C2)n1 [Compound 134] | 10300 | 183.2 | 14
